Test results: PMC2649376 (Molecular membrane biology, 2006)
Positions count from the first letter of the chain named.

Tests used:
[1] = molecular target: T1, F130Y mutant 5-HT3 receptor (Mus musculus, UniProt P23979, F130Y); conditions: whole cell electrophysiology, ref Steward et al. 2000; cited from earlier work
T1 sequence (P23979 24-483 isoform P23979-2 F130Y limits assumed): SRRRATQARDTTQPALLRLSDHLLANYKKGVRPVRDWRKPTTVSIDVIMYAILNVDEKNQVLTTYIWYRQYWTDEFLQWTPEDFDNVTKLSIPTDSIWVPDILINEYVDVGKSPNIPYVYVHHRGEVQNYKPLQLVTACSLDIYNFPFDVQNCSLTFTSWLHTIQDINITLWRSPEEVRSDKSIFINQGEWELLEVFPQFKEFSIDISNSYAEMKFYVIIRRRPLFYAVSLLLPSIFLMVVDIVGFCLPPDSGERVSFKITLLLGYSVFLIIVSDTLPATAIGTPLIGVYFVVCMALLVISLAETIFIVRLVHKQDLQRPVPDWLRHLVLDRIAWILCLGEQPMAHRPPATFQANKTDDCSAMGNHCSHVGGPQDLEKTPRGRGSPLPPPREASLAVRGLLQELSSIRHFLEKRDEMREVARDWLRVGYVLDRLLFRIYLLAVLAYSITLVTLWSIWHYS

[2] = molecular target: T2, N128V mutant 5-HT3 receptor (Mus musculus, UniProt P23979, N128V); test: FlexStation membrane potential dye functional assay; type: cell-based
T2 sequence (P23979 24-483 isoform P23979-2 N128V limits assumed): T1 sequence (P23979 24-483 isoform P23979-2 F130Y limits assumed) with N105V, Y107F

[3] = molecular target: T1, F130Y mutant 5-HT3 receptor; test: as above; type: cell-based; conditions: HEK 293 cells
[4] = molecular target: T3, N128E mutant 5-HT3 receptor (Mus musculus, UniProt P23979, N128E); test: as above; type: cell-based
T3 sequence (P23979 24-483 isoform P23979-2 N128E limits assumed): T1 sequence (P23979 24-483 isoform P23979-2 F130Y limits assumed) with N105E, Y107F

[5] = molecular target: T4, F130W mutant 5-HT3 receptor (Mus musculus, UniProt P23979, F130W); test: as above; type: cell-based
T4 sequence (P23979 24-483 isoform P23979-2 F130W limits assumed): T1 sequence (P23979 24-483 isoform P23979-2 F130Y limits assumed) with Y107W

[6] = molecular target: T5, F130A mutant 5-HT3 receptor (Mus musculus, UniProt P23979, F130A); test: as above; type: cell-based
T5 sequence (P23979 24-483 isoform P23979-2 F130A limits assumed): T1 sequence (P23979 24-483 isoform P23979-2 F130Y limits assumed) with Y107A

[7] = molecular target: T6, N128L mutant 5-HT3 receptor (Mus musculus, UniProt P23979, N128L); conditions: HEK 293 cells
T6 sequence (P23979 24-483 isoform P23979-2 N128L limits assumed): T1 sequence (P23979 24-483 isoform P23979-2 F130Y limits assumed) with N105L, Y107F

[8] = molecular target: T7, N128D mutant 5-HT3 receptor (Mus musculus, UniProt P23979, N128D); conditions: HEK 293 cells
T7 sequence (P23979 24-483 isoform P23979-2 N128D limits assumed): T1 sequence (P23979 24-483 isoform P23979-2 F130Y limits assumed) with N105D, Y107F

[9] = molecular target: T8, N128R mutant 5-HT3 receptor (Mus musculus, UniProt P23979, N128R)
T8 sequence (P23979 24-483 isoform P23979-2 N128R limits assumed): T1 sequence (P23979 24-483 isoform P23979-2 F130Y limits assumed) with N105R, Y107F

[10] = molecular target: T9, N128Q mutant 5-HT3 receptor (Mus musculus, UniProt P23979, N128Q); conditions: HEK 293 cells
T9 sequence (P23979 24-483 isoform P23979-2 N128Q limits assumed): T1 sequence (P23979 24-483 isoform P23979-2 F130Y limits assumed) with N105Q, Y107F

[11] = molecular target: F130N mutant 5-HT3 receptor; conditions: F130N mutant receptor activated with acetylcholine; ref Steward et al. 2000; cited from earlier work

SMILES	increase in EC50 versus wild type reported previously [1] [fold]	change in EC50 versus wild type [2]	Hill Coefficient ([2]; HEK 293 cells)	Hill Coefficient [3]	change in EC50 versus wild type [4]	Hill Coefficient ([4]; HEK 293 cells)	change in EC50 versus wild type [5]	Hill Coefficient ([5]; HEK 293 cells)	change in EC50 versus wild type [6]	Hill Coefficient ([6]; HEK 293 cells)	Hill Coefficient [7]	Hill Coefficient [8]	factor of increase in EC50 versus wild type [9]	Hill Coefficient [10]	EC50 [11] [µM]
NCCc1c[nH]c2ccc(O)cc12 [5-HT, 5-hydroxytryptamine]	8	four-fold decrease in EC50	1.809±0.34	2.609±0.39	did not significantly affect the EC50	2.369±0.12	four-fold decrease in EC50	2.159±0.35	four-fold decrease in EC50	2.959±0.39	2.519±0.15	2.169±0.68	~1500	1.929±0.08	–
CC(=O)OCC[N+](C)(C)C [acetylcholine]	–	–	–	–	–	–	–	–	–	–	–	–	–	–	256
